How the values were obtained:
HCN3 = target: T1, HCN3 (Homo sapiens, UniProt Q9P1Z3); assay: HCN3 automated patch clamp current inhibition assay (Ionworks Barracuda); format: cell-based; settings: HEK-293 cells stably expressing HCN3; current inhibition during a hyperpolarizing pulse of -100 mV
T1 construct: expressed in transfected cells
T1 sequence (Q9P1Z3 1-774): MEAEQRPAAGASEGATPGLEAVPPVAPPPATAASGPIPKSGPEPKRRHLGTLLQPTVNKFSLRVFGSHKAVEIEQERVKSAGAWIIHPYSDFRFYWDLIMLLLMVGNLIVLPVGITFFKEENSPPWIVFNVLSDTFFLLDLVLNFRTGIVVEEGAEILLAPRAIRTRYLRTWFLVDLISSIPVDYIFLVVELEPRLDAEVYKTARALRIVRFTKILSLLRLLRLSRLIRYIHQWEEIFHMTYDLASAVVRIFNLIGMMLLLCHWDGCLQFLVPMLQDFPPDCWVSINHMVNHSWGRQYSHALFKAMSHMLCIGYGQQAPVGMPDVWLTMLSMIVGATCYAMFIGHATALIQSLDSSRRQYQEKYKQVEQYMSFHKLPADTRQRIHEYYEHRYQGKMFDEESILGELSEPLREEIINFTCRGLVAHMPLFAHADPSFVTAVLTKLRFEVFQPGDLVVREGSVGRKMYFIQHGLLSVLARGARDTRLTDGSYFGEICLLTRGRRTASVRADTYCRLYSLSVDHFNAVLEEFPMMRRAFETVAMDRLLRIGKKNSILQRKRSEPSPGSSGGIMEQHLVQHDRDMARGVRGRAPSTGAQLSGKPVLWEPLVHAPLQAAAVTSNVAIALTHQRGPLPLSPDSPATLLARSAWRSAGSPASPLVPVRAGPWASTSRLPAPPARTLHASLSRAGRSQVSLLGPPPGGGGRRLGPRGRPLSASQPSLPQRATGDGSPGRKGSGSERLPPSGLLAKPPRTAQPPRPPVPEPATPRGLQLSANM
Method: (§1) In vitro, high-throughput cellular electrophysiology was employed to detect voltage- and use-dependence of compounds in single concentration screening and IC50 determination for library and medicinal chemistry profiling compounds in 384 well plates.
(§2) Cell cultures were maintained in DMEM/F12 cell growth media containing FBS and appropriate antibiotics at 37° C., 5% CO2 for a maximum of 20 passages. At a time point of 40-72 hours prior to assay, the expression of HCN protein in the cells is induced by addition of tetracyclin. Cells may be incubated at 27° C. for 2-24 hours of induction. […] Cells were harvested at 80% confluency and resuspended in extracellular buffer and added to wells. A freshly prepared Escin solution was added to intracellular buffer and applied to establish whole cell recording via perforated patch clampling by APC.
(§3) Currents through activated channels were measured directly by APC by employing hyperpolarizing voltage steps. The activation window was increased and stabilized by the addition of cell permeable Br-cAMP. Baselines were established for both use- and voltage-dependence protocols using a −30 mV holding potential and multiple test pulses at −100 mV or by 20 mV steps from −120 to 0 mV, respectively. Test compounds were added after baseline recordings followed by a 10 min incubation, voltage-dependency protocol recording, and use-dependency recording. Data was corrected for baseline and rundown (well based) and normalized for % inhibition (plate based). Five previously reported HCN inhibitors of varying potencies and selectivities and zatebradine were used for run to run and plate to plate quality controls. […] Percent inhibition was analysed at −80, −100, −120 mV of the voltage-dependency protocol and at pulse 0 and 50 of the use-dependency protocols. Selectivity was assessed against HCN2, HCN3, and HCN4 overexpressing cell lines using similar methods. As HCN4 has a slower activation than the other HCN channels, activation was extended to achieve steady state activation.

HCN1 = target: T2, HCN1 (Homo sapiens, UniProt O60741); assay: HCN1 automated patch clamp current inhibition assay (Ionworks Barracuda); format: cell-based; settings: HEK-293 cells stably expressing HCN1; current inhibition during a hyperpolarizing pulse of -100 mV
T2 construct: expressed in transfected cells
T2 sequence (O60741 1-890): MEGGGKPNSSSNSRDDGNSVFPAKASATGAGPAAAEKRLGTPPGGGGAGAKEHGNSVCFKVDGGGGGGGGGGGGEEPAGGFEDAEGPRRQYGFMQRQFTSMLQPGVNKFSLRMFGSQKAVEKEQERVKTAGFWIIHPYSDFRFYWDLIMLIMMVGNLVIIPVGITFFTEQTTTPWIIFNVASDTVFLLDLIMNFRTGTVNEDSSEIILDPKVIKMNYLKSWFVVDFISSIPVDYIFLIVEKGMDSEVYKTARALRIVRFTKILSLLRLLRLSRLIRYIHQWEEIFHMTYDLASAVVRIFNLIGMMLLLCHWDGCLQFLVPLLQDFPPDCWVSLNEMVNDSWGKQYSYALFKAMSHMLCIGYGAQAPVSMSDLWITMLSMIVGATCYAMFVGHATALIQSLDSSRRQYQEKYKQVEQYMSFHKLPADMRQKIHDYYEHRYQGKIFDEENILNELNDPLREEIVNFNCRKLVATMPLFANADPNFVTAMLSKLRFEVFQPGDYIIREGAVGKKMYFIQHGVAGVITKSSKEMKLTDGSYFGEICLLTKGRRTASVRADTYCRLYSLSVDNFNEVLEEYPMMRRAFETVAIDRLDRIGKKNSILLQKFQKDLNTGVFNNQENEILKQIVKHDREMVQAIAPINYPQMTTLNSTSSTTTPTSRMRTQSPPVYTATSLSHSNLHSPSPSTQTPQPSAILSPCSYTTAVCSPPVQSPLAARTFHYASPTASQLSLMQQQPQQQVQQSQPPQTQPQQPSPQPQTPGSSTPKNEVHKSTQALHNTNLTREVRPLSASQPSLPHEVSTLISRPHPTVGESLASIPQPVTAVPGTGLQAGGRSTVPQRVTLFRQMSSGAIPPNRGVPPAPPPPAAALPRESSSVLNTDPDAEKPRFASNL
Method: as §1, §2, §3

Row | SMILES | IC50 (HCN3) [nM] | IC50 (HCN1) [nM]
1 | Cc1ccc(-n2c(C(N)=O)nc(C#Cc3ccnc(Cl)c3C)c2C)cn1 [Example 1, 4-((2-Chloro-3-methylpyridin-4-yl)ethynyl)-5-methyl-1-(6-methylpyridin-3-yl)-1H-imidazole-2-carboxamide] | > 40000 | 159
2 | Cc1ccc(-n2c(C(N)=O)nc(C#Cc3cccc(C#N)c3)c2C)cn1 [Example 5, 4-((3-Cyanophenyl)ethynyl)-5-methyl-1-(6-methylpyridin-3-yl)-1H-imidazole-2-carboxamide] | > 40000 | 240
3 | Cc1ccc(-n2c(C(N)=O)nc(C#Cc3ccnc(Cl)c3)c2C)cn1 [Example 6, 4-(2-Chloro-pyridin-4-ylethynyl)-5-methyl-1-(6-methyl-pyridin-3-yl)-1H-imidazole-2-carboxylic Acid Amide] | > 40000 | 260
4 | COc1cccc(C#Cc2nc(C(N)=O)n(-c3ccc(C)nc3)c2C)c1 [Example 8, 4-((3-Methoxyphenyl)ethynyl)-5-methyl-1-(6-methylpyridin-3-yl)-1H-imidazole-2-carboxamide] | 36400 | 460
5 | Cc1cccc(C#Cc2nc(C(N)=O)n(-c3ccc(C)nc3)c2C)c1 [Example 10, 5-Methyl-1-(6-methylpyridin-3-yl)-4-(m-tolylethynyl)-1H-imidazole-2-carboxamide] | > 40000 | 579
6 | Cc1c(C#Cc2nc(C(N)=O)n(-c3ccc(Cl)nc3)c2C)ccnc1Cl [Example 26, 4-[2-(2-Chloro-3-methyl-4-pyridyl)ethynyl]-1-(6-chloro-3-pyridyl)-5-methyl-imidazole-2-carboxamide] | > 40000 | 241
7 | Cc1ccc(-n2c(C(N)=O)nc(C#Cc3ccnc(Cl)c3C)c2C)nc1 [Example 28, 4-[2-(2-Chloro-3-methyl-4-pyridyl)ethynyl]-5-methyl-1-(5-methyl-2-pyridyl)imidazole-2-carboxamide] | > 40000 | 192
8 | Cc1ccc(-n2c(C(N)=O)cc(C#Cc3ccnc(Cl)c3)c2C)cn1 [Example 31, 4-[2-(2-Chloro-4-pyridyl)ethynyl]-5-methyl-1-(6-methyl-3-pyridyl)pyrrole-2-carboxamide] | 23500 | 231
9 | Cc1ccc(-c2c(C(N)=O)nc(C#Cc3ccnc(Cl)c3)n2C)cn1 [Example 32, 2-[2-(2-Chloro-4-pyridyl)ethynyl]-1-methyl-5-(6-methyl-3-pyridyl)imidazole-4-carboxamide] | > 40000 | 429
10 | Cc1ccc(-n2c(C(N)=O)nc(C#Cc3ccnc(Cl)c3)c2C)cc1 [Example 38, 4-[2-(2-Chloro-4-pyridyl)ethynyl]-5-methyl-1-(p-tolyl)imidazole-2-carboxamide] | > 40000 | 232
11 | Cc1c(C#Cc2ccnc(Cl)c2)nc(C(N)=O)n1-c1ccc(Cl)cc1 [Example 39, 1-(4-Chlorophenyl)-4-((2-chloropyridin-4-yl)ethynyl)-5-methyl-1H-imidazole-2-carboxamide] | > 40000 | 383
12 | NC(=O)c1nc(C#Cc2ccnc(Cl)c2)cn1-c1ccc(F)cc1 [Example 42, 4-(2-Chloro-pyridin-4-ylethynyl)-1-(4-fluoro-phenyl)-1H-imidazole-2-carboxylic Acid Amide] | > 40000 | 2520

The remaining lines, values ahead:

Row | IC50 (HCN3) [nM] | IC50 (HCN1) [nM] | SMILES
13 | > 40000 | 173 | Cc1ccc(-n2c(C(N)=O)nc(C#Cc3ccnc(Cl)c3F)c2C)cn1 [Example 2, 4-((2-Chloro-3-fluoropyridin-4-yl)ethynyl)-5-methyl-1-(6-methylpyridin-3-yl)-1H-imidazole-2-carboxamide]
14 | 25700 | 100 | Cc1ccc(-n2c(C(N)=O)nc(C#Cc3csc(Cl)c3)c2C)cn1 [Example 3, 4-[2-(5-Chlorothiophen-3-yl)ethynyl]-5-methyl-1-(6-methylpyridin-3-yl)imidazole-2-carboxamide]
15 | 32800 | 225 | Cc1ccc(-n2c(C(N)=O)nc(C#Cc3cccc(Cl)c3)c2C)cn1 [Example 4, 4-[2-(3-Chlorophenyl)ethynyl]-5-methyl-1-(6-methyl-3-pyridyl)imidazole-2-carboxamide]
16 | 2400 | 303 | Cc1cnc(-n2c(C(N)=O)nc(C#Cc3ccnc(Cl)c3C)c2C)cn1 [Example 23, 4-[2-(2-Chloro-3-methyl-4-pyridyl)ethynyl]-5-methyl-1-(5-methylpyrazin-2-yl)imidazole-2-carboxamide]
17 | 38400 | 51 | COc1ccc(-n2c(C(N)=O)nc(C#Cc3ccnc(Cl)c3C)c2C)cn1 [Example 27, 4-[2-(2-Chloro-3-methyl-4-pyridyl)ethynyl]-1-(6-methoxy-3-pyridyl)-5-methyl-imidazole-2-carboxamide]

Source: US12528784B2, “Alkynyl-(heteroaryl)-carboxamide HCN1 inhibitors” (Hoffmann-La Roche Inc., priority 2019, dated 2026)
